Data on 31 compounds can be found in patent US7671045B2, “17-phosphorous steroid derivatives useful as progesterone receptor modulators” (Janssen Pharmaceutica N.V., priority 2006, dated 2010).

Assay [1] deals with T47D human breast cancer cells. Nature of the assay: Alkaline phosphatase assay in human breast cancer cell line T47D. It counts as cell-based. The protocol:
Alkaline Phosphatase Assay in Human Breast Cancer Cell Line T47D
T47D human breast cancer cells were grown in RPMI medium without phenol red (Invitrogen) containing 10% (v/v) heat-inactivated fetal bovine serum (FBS; Hyclone), 1% (v/v) penicillin-streptomycin (Invitrogen), 1% (w/v) glutamine (Invitrogen), and […] insulin (Sigma). Incubation conditions were 37° C. in a humidified 5% (v/v) carbon dioxide environment.
The cells were plated in 96-well tissue culture plates at 10,000 cells per well in assay medium [RPMI medium without phenol red (Invitrogen) containing 5% (v/v) charcoal-treated FBS (Hyclone) and 1% (v/v) penicillin-streptomycin (Invitrogen)]. Two days later, the medium was decanted and test compound or control were added at a final concentration of 0.1% (v/v) dimethyl sulfoxide in fresh assay medium. Twenty-four hours later, an alkaline phosphatase assay was performed using a SEAP kit (BD Biosciences Clontech, Palo Alto, Calif.). Briefly, the medium was decanted and the cells were fixed for 30 minutes at room temperature with 5% (v/v) formalin (Sigma). The cells were washed once with room temperature Hank's buffered saline solution (Invitrogen). Equal volumes (0.05 mL) of 1× Dilution Buffer, Assay Buffer and 1:20 substrate/enhancer mixture were then added. After 1 hour incubation at room temperature in the dark, the lysate was transferred to a white 96-well plate (Dynex) and luminescence was read using a LuminoSkan Ascent (Thermo Electron, Woburn, Mass.).

Assay [2] relates to A549 Human lung carcinoma cells. The experiment in a line: Transient transfection and Steady Glo luciferase assay in A549 cells with dexamethasone challenge. It counts as cell-based. The protocol: Transient Transfection and Steady Glo Luciferase Assay
A549 Human lung carcinoma cells were grown in F-12K Nutrient Mixture containing 10% (v/v) fetal bovine serum (FBS; Invitrogen), 2 mM glutamine and 0.15% […] (Invitrogen)
A549 cells were split 1 to 3 in 175 cm tissue culture flask. The cells were incubated at 37° C. in CO2 incubator until the cells were 95% confluent (typically 24-30 hours).
The following solutions were prepared in sterile tubes: (a) Solution A: 1.5 μg/ml of DNA in 8.5 ml OPTI-MEM I Reduced Serum Medium. (GIBCO cat# 31985) and (b) Solution B: 6 μl/ml of DMRIE-C Reagent into […] OPTI-MEM I. The two solutions were combined and mixed gently, then incubated at room temperature for 40 minutes.
The A549 cells prepared above were washed with […] of OPTI-MEM I. The medium was removed and 17 ml of the lipid-DNA complex solution was overlayed onto cells. The cells ere then incubated for 16 h at 37° C. in CO2 incubator. The DNA-containing medium was removed and 30 ml of growth medium was added. (5% Charcoal treated FBS) After 5-6 h, the cells were seeded in a 96 well plate and the cells incubated overnight at 37° C. in CO2 incubator.
To each well was then added 5 μl of test compounds and the cells incubated at 37° C. for 10 min. 5 μL of dexamathasone (CAS [50-02-2]), a glucocorticoid agonist, solution was then added to each well for challenger and the cells incubated at 37° C. in CO2 incubator for 24 h. 100 μl of Luc-assay buffer was then added into each cell well and the cells incubated for 30 min at room temperature. A 150 μL sample from each well was then transferred into a DYNEX Microlitel plate and read on Top-counter.

Where [3] appears, read: T47D cells, alkaline phosphatase readout, 24 h with test compound, read-out: T47D IC50.
Where [4] appears, read: transfected A549 cells, luciferase readout, challenged with dexamethasone (glucocorticoid agonist), 24 h, read-out: A549 IC50.
The mark [5] stands for this setting: T47D, 24 h, read-out: T47D IC50 (nM).
Where [6] appears, read: A549, 24 h, read-out: A549 IC50 (nM).

Molecules are shown by their SMILES. Like-named read-outs stand apart in the source and are kept apart here.

One may read the IC50 as the concentration that inhibits the measured activity by half. As to `C=C1CCO[C@]12CC[C@H]1[C@@H]3CCC4=CC(=O)CCC4=C3[C@@H](c3ccc(P(C)(=O)O)cc3)C[C@@]12C` [Compound 22, 19,24-Dinorchola-4,9,20-trien-3-one, 1723-epoxy-11-[4-(hydroxy-methyl-phosphinoyl)phenyl]-(11β,17α)-(9Cl)], the IC50 in assay [1] (setting [3]) is > 1000 nM; in assay [2] (setting [4]) it was > 3000 nM.

As to `C=CC[C@]1(O)CC[C@H]2[C@@H]3CCC4=CC(=O)CCC4=C3[C@@H](c3ccc(P(=O)(OCC)OCC)cc3)C[C@@]21C` [Compound 13], the IC50 in assay [1] (setting [5]) was 170 nM; in assay [2] (setting [6]), 30.2 nM.

For the compound `CN(C)c1ccc([C@H]2C[C@@]3(C)[C@@H](CC[C@@]3(O)C#CP(=O)(N(C)C)N(C)C)[C@@H]3CCC4=CC(=O)CCC4=C32)cc1` [Compound 106], the figures for the IC50 in assay [1] (setting [3]) and in assay [2] (setting [4]) were 7.53 nM and 121 nM, respectively.

As for `C=C1CCO[C@]12CC[C@H]1[C@@H]3CCC4=CC(=O)CCC4=C3[C@@H](c3ccc(P(=O)(Oc4ccccc4)Oc4ccccc4)cc3)C[C@@]12C` [Compound 37], the results for the IC50 in assay [1] (setting [3]) and in assay [2] (setting [4]) were 3.3 nM and 34.3 nM, respectively.

For `C/C=C/C[C@]1(O)CC[C@H]2[C@@H]3CCC4=CC(=O)CCC4=C3[C@@H](c3ccc(P(=O)(c4ccccc4)c4ccccc4)cc3)C[C@@]21C` [Compound 28], the IC50 in assay [1] (setting [3]) turned out to be 660 nM; in assay [2] (setting [4]), 129 nM.

Regarding `C=C1CCO[C@]12CC[C@H]1[C@@H]3CCC4=CC(=O)CCC4=C3[C@@H](c3ccc(P(=O)(OCC(F)(F)F)OCC(F)(F)F)cc3)C[C@@]12C` [Compound 38, 19,24-Dinorchola-4,9,20-trien-3-one, 17,23-epoxy-11-[4-[Bis-(2,2,2-trifluoro-ethoxy)-phosphoryl]-phenyl]-, (11β,17α)-(9Cl)], the IC50 in assay [1] (setting [3]) is 29.5 nM; in assay [2] (setting [4]), 141 nM.

Regarding `C=CC[C@]1(O)CC[C@H]2[C@@H]3CCC4=CC(=O)CCC4=C3[C@@H](c3ccc(P(C)(C)=O)cc3)C[C@@]21C` [Compound 9], the IC50 was 205 nM in assay [1] (setting [3]) and > 1000 nM in assay [2] (setting [4]).

`CN(C)c1ccc([C@H]2C[C@@]3(C)[C@@H](CC[C@@]3(O)C#CP(=O)(N3CCOC3=O)N3OCCC3=O)[C@@H]3CCC4=CC(=O)CCC4=C32)cc1` (stereo partly shown) [Compound 104]: the results for the IC50 in assay [1] (setting [3]) and in assay [2] (setting [4]) were 7.25 nM and 64 nM, respectively.

Regarding `C[C@]12C[C@H](c3ccc(P(=O)(OCC(F)(F)F)OCC(F)(F)F)cc3)C3=C4CCC(=O)C=C4CC[C@H]3[C@@H]1CCC2=O` [Compound 32], the half-inhibitory concentration (IC50) is > 1000 nM in assay [1] (setting [5]) and 217 nM in assay [2] (setting [6]).

`COP(=O)(OC)c1ccc([C@H]2C[C@]3(C)C(=O)CC[C@H]3[C@@H]3CCC4=CC(=O)CCC4=C32)cc1` [Compound 15]: the IC50 in assay [1] (setting [5]) was 8.8 nM; in assay [2] (setting [6]) it was > 3000 nM.

Take `C[C@]12C[C@H](c3ccc(P(=O)(Oc4ccccc4)Oc4ccccc4)cc3)C3=C4CCC(=O)C=C4CC[C@H]3[C@@H]1CCC2=O` [Compound 33]: the IC50 in assay [1] (setting [3]) was > 1000 nM; in assay [2] (setting [4]), 217 nM.

Regarding `C=CC[C@]1(O)CC[C@H]2[C@@H]3CCC4=CC(=O)CCC4=C3[C@@H](c3ccc(P(=O)(c4ccccc4)c4ccccc4)cc3)C[C@@]21C` [Compound 24], the IC50 in assay [1] (setting [3]) turned out to be 762 nM; in assay [2] (setting [4]), 48.2 nM.

For the compound `CCOP(=O)(OCC)c1ccc([C@H]2C[C@]3(C)C(=O)CC[C@H]3[C@@H]3CCC4=CC(=O)CCC4=C32)cc1` [Compound 1], the IC50 was > 1000 nM in assay [1] (setting [5]) and 254 nM in assay [2] (setting [6]).

With `C=C(C)[C@]1(O)CC[C@H]2[C@@H]3CCC4=CC(=O)CCC4=C3[C@@H](c3ccc(P(C)(C)=O)cc3)C[C@@]21C` [Compound 10], the IC50 in assay [1] (setting [3]) was 18.3 nM; in assay [2] (setting [4]), > 3000 nM.

`C=C1CCO[C@]12CC[C@H]1[C@@H]3CCC4=CC(=O)CCC4=C3[C@@H](c3ccc(P(C)(C)=O)cc3)C[C@@]12C` [Compound 4]: the values for the IC50 in assay [1] (setting [3]) and in assay [2] (setting [4]) were 3 nM and 66.2 nM, respectively.

On to `C=C1CCO[C@]12CC[C@H]1[C@@H]3CCC4=CC(=O)CCC4=C3[C@@H](c3ccc(P(=O)(c4ccccc4)c4ccccc4)cc3)C[C@@]12C` [Compound 36, 19,24-Dinorchola-4,9,20-trien-3-one, 17,23-epoxy-11-[4-(diphenyl-phosphinoyl)-phenyl]-, (11β,17α)-(9Cl)], for which the values for the IC50 in assay [1] (setting [3]) and in assay [2] (setting [4]) were 45 nM and 163 nM, respectively.

For `CCOP(=O)(C#C[C@]1(O)CC[C@H]2[C@@H]3CCC4=CC(=O)CCC4=C3[C@@H](c3ccc(SC)cc3)C[C@@]21C)OCC` [Compound 107], the IC50 in assay [1] (setting [5]) turned out to be 4.75 nM; in assay [2] (setting [6]), 454 nM.

With `C=C1CCO[C@]12CC[C@H]1[C@@H]3CCC4=CC(=O)CCC4=C3[C@@H](c3ccc(P(=O)(OCC)OCC)cc3)C[C@@]12C` [Compound 3], the results for the IC50 in assay [1] (setting [5]) and in assay [2] (setting [6]) were 12 nM and 238 nM, respectively.

Turning to `CCOP(=O)(OCC)c1ccc([C@H]2C[C@@]3(C)[C@@H](CC[C@@]3(O)C#Cc3ccccc3)[C@@H]3CCC4=CC(=O)CCC4=C32)cc1` [Compound 25], the IC50 in assay [1] (setting [5]) was 38.2 nM; in assay [2] (setting [6]) it was 83.8 nM.

As to `COP(=O)(OC)c1ccc([C@H]2C[C@@]3(C)[C@@H](CC[C@@]3(O)C#Cc3ccccc3)[C@@H]3CCC4=CC(=O)CCC4=C32)cc1` [Compound 31], the IC50 in assay [1] (setting [5]) stood at 7.47 nM; in assay [2] (setting [6]) it was 130 nM.

In the case of `CCOP(=O)(C#C[C@]1(O)CC[C@H]2[C@@H]3CCC4=CC(=O)CCC4=C3[C@@H](c3ccc(OC)cc3)C[C@@]21C)OCC` [Compound 108], the IC50 in assay [1] (setting [5]) worked out at 6.9 nM; in assay [2] (setting [6]), 72.2 nM.

On to `C=C1CCO[C@]12CC[C@H]1[C@@H]3CCC4=CC(=O)CCC4=C3[C@@H](c3ccc(P(=O)(O)OC)cc3)C[C@@]12C` [Compound 17], for which the IC50 in assay [1] (setting [5]) is > 1000 nM; in assay [2] (setting [6]), > 3000 nM.

On to `C[C@]12C[C@H](c3ccc(P(C)(C)=O)cc3)C3=C4CCC(=O)C=C4CC[C@H]3[C@@H]1CC[C@@]2(O)C(F)(F)C(F)(F)F` [Compound 7], for which the results for the IC50 in assay [1] (setting [3]) and in assay [2] (setting [4]) were 8.4 nM and 624 nM, respectively.

Take `CCOP(=O)(OCC)c1ccc([C@H]2C[C@@]3(C)[C@@H](CC[C@@]3(O)C(F)(F)C(F)(F)F)[C@@H]3CCC4=CC(=O)CCC4=C32)cc1` [Compound 8]: the IC50 in assay [1] (setting [5]) worked out at 170 nM; in assay [2] (setting [6]), 168 nM.

Regarding `C=C1CCO[C@]12CC[C@H]1[C@@H]3CCC4=CC(=O)CCC4=C3[C@@H](c3ccc(P4(=O)OCC(C)(C)CO4)cc3)C[C@@]12C` [Compound 23, 19,24-Dinorchola-4,9,20-trien-3-one, 17,23-epoxy-11-[4-(5,5-Dimethyl-2-oxo-2λ^5-[1,3,2]dioxaphosphinan-2-yl)-phenyl]-, (11β,17α)-(9Cl)], the IC50 in assay [1] (setting [3]) amounted to 28.7 nM; in assay [2] (setting [4]), 64.3 nM.

`CC#C[C@]1(O)CC[C@H]2[C@@H]3CCC4=CC(=O)CCC4=C3[C@@H](c3ccc(P(=O)(c4ccccc4)c4ccccc4)cc3)C[C@@]21C` [Compound 27]: the IC50 in assay [1] (setting [3]) was 381 nM; in assay [2] (setting [4]) it was 16.6 nM.

Take `C=C1CCO[C@]12CC[C@H]1[C@@H]3CCC4=CC(=O)CCC4=C3[C@@H](c3ccc(P(=O)(OC)OC)cc3)C[C@@]12C` [Compound 16]: the IC50 amounted to 8.3 nM in assay [1] (setting [5]) and 230 nM in assay [2] (setting [6]).

Consider `C[C@]12C[C@H](c3ccc(P(C)(C)=O)cc3)C3=C4CCC(=O)C=C4CC[C@H]3[C@@H]1CC[C@@]2(O)CC#N` [Compound 6], for which the IC50 is > 1000 nM in assay [1] (setting [3]) and > 3000 nM in assay [2] (setting [4]).

Take `CN(C)c1ccc([C@H]2C[C@@]3(C)[C@@H](CC[C@@]3(O)C#CP(C)(C)=O)[C@@H]3CCC4=CC(=O)CCC4=C32)cc1` [Compound 102]: the IC50 was 7.3 nM in assay [1] (setting [3]) and 70.4 nM in assay [2] (setting [4]).

In the case of `C[C@]12C[C@H](c3ccc(P(=O)(OCc4ccccc4)OCc4ccccc4)cc3)C3=C4CCC(=O)C=C4CC[C@H]3[C@@H]1CCC2=O` [Compound 35], the IC50 in assay [1] (setting [3]) came to 980 nM; in assay [2] (setting [4]), 948 nM.

For the compound `CCOP(C)(=O)c1ccc([C@H]2C[C@]3(C)C(=O)CC[C@H]3[C@@H]3CCC4=CC(=O)CCC4=C32)cc1` (stereo partly shown) [Compound 21], the IC50 in assay [2] (setting [6]) is > 3000 nM.
